Measurements published in patent US20240391889A1, “ANTIMICROBIAL COMPOUNDS AND THE METHODS OF USE” (priority 2021, published 2024).
Values after ≈ are worked out from the molar mass of the structure shown. Like-named read-outs stand apart in the source and are kept apart here. Numbered stars: 1 amine (or outer) side, 2 acyl side, 3 side chain; on linkers, the order of the positions; unused ones are H or OH. Square brackets hold non-standard residues; d marks the D form. Peptide text beside a SMILES is read from it. * marks the point of attachment. N(1S-cyclohexylethyl)Gly = C[C@H](NCC(=O)O)C1CCCCC1; N(3-imidazol-1-ylpropyl)Gly = O=C(O)CNCCCn1ccnc1; N(2-thienylmethyl)Gly = O=C(O)CNCc1cccs1; NCyclohexylmethylGly = O=C(O)CNCC1CCCCC1; N(tridecyl)Gly = CCCCCCCCCCCCCNCC(=O)O; X2 = O=C(CN(c1cccc2ccccc12)[*:1])[*:2]; N(4-MeOBn)Gly = COc1ccc(CNCC(=O)O)cc1; N(4-F-Bzl)Gly = O=C(O)CNCc1ccc(F)cc1; X1 = CC(c1ccccc1)N(CC(=O)[*:2])[*:1]; Gly(N-2-aminoethyl) = NCCNCC(=O)O; Myristoyl = CCCCCCCCCCCCCC(=O)*; NFurfurylGly = O=C(O)CNCc1ccco1; Gly(N(CH2)3NH2) = NCCCNCC(=O)O; Nphe = O=C(O)CNCc1ccccc1; NPrGly = CCCNCC(=O)O; Nlys = NCCCCNCC(=O)O

Tests used:
C. albicans = format: cell-based, Candida albicans; settings: 24 h
Source text: (§1) This screening led to the discovery of RMG9-11 (FIG. 2C). The minimum inhibitory concentration (MIC) of resynthesized RMG9-11 was initially determined against C. albicans, C. neoformans, and the ESKAPE bacteria via CSLI guidelines (CLSI. Methods for Dilution Antimicrobial Susceptibility Tests for Bacteria That Grow Aerobically, 11th Edition. Clinical and Laboratory Standards Institute (2018); CLSI. Reference method for broth dilution antifungal susceptibility testing of yeasts; approved standard-third edition; CLSI document M27-A3. Clinical and Laboratory Standards Institute (2008)). […] C. albicans clinical isolates include a reference strain (M1), fluconazole susceptible strains (M4 and M6), and fluconazole resistant strains (M2, M3, M5, and M7). ATCC 64124 is multidrug resistant C. albicans strain that is resistant to amphotericin B, fluconazole, caspofungin, and flucytosine. All MICs were performed under CSLI guidelines in triplicate on at least three different days.
(§2) The minimum inhibitory concentration (MIC) of peptoids against fungal pathogens C. albicans and C. neoformans was determined following CLSI guidelines (Reference method for broth dilution antifungal susceptibility testing of yeasts; approved standard-third edition; CLSI document M27-A3.” CLSI. 2008.). Colonies were transferred from a streaked YPD plate to 0.85% saline to reach an OD530 between 0.18 and 0.25. This inoculant was diluted 1:100 into RPMI-MOPS and then further diluted 1:20 into RPMI-MOPS. 198 μL of inoculant was seeded into each well of a 96 well black-walled plate. 2-fold serial dilutions of 100× peptoid solutions were prepared in water and 2 μL of peptoid were added to each well in triplicate. […] MIC was defined as the lowest concentration of compound preventing fungal growth. This assay was repeated 3 times on separate days with each compound.

in vitro = format: cell-based; settings: human, HepG2 hepatocellular carcinoma cells
Protocol: (§3) The mammalian cell lines that were tested (HepG2, 3T3, and HaCat) were incubated with RMG9-11 for 72 hours and cell viability was determined via mitochondrial activity using an MTT reduction assay where viable cells reduce MTT to formazan. Toxicity is reported as the concentration of the peptoid that results in a 50% reduction in viable cells, termed toxicity dose 50% or TD50. […] SR is defined as the TD50 divided by MIC and provides a measure of the therapeutic window for a compound. Typically for most lead compounds that would continue through development and optimization, a SR of 10 is preferred while an SR of 100 is more desirable for a compound moving into preclinical animal model evaluation.
(§4) Hepatocellular carcinoma (HepG2), mouse fibroblast (3T3), and human keratinocyte (HaCat) cells were cultured in Dulbeco modified eagle media (DMEM) containing 10% fetal bovine serum (FBS) and 1% penicillin, streptomycin, and glutamine (PSG) at 37° C. and 5% CO2. Cells were collected and adjusted to […] to 4×10^5 cells/mL in phenol-red free DMEM and plated (100 μL) 96 well plates. 2-fold serial dilutions of 10× peptoid (11.1 μL) were added to each well in triplicate. Water (vehicle) was used as a negative control. Plates were incubated at 37° C. in 5% CO2 for 72 hours. Thiazolyl blue tetrazolium bromide (MTT) was added to each well (5 mg/mL; 20 μL) and incubated for 3 hours. Media was removed, DMSO (100 μL) was added, and plates were incubated at 37° C. for 10 minutes. Plates were read on a SPECTRAMAX M5 plate reader (Abs. 570 nm). The concentration of compound resulting in a 50% reduction in growth compared to control (toxicity dose 50%; TD50) was determined using GRAFIT. This procedure was repeated three times on separate days.

HepG2 liver cells = assay: in vitro; format: cell-based
Protocol: as §3, §4

C. neoformans = format: cell-based, Cryptococcus neoformans; settings: 72 h
Source text: as §1, §2

[1] = Percent acetonitrile at time of elution from RP-HPLC (hydrophobicity); format: physicochemical
Protocol: Round 1 of the iterative SAR explored two miscellaneous derivatives along with derivatives that explored substitutions in position 3 (R^2; FIG. 6). Structures were confirmed by ESI-MS and hydrophobicity was determined by the percent acetonitrile at time of elution during RP-HPLC purification and using MarvinSketch to calculate the distribution coefficient at pH 7.4 (Table 5). Only one derivative of position 1 (group T of Formula 1) was explored, substituting a 14-carbon fatty acid (myristic acid) tail in place of the tridecyl tail (911-M1). This was tested because this fatty acid was previously shown to improve activity with C. albicans while reducing toxicity (Green R M, Bicker R. L. Evaluation of peptoid mimics of short, lipophilic peptide antimicrobials. Int J Antimicrob Agents. 2020; 56(2):106048. doi:10.1016/j.ijantimicag.2020.106048). The second miscellaneous derivative tested substituting the propyl group (Nnva) in position 2 (R^1) with a cationic group in an effort to reduce toxicity without effecting antifungal activity (911-M2). […]

| Structure (SMILES) | MIC C. albicans (C. albicans) | CC50 at 72 h (in vitro) | HepG2 TD50 (HepG2 liver cells) | cytotoxicity compared to RMG9-11 (HepG2 liver cells) | MIC C. neoformans (C. neoformans) | % ACN [1] | MIC C. neoformans (C. neoformans; listed as 911-10) | toxicity compared to 911-M1 (HepG2 liver cells) |
| --- | --- | --- | --- | --- | --- | --- | --- | --- |
| CCCCCCCCCCCCCC(=O)NCC(=O)N(CCC)CC(=O)N(CC(=O)N(CCCCN)CC(=O)N(CC(=O)N(CC(=O)N(CCCN)CC(N)=O)Cc1ccccc1)Cc1ccco1)C(C)c1ccccc1 (stereo not drawn) [Compound 911-M1] (Myristoyl-G[NPrGly][X1][Nlys][NFurfurylGly][Nphe][Gly(N(CH2)3NH2)]-NH2) | 3.13 to 6.25 µg/mL | 144 ± 22.6 µg/mL (≈ 135 µM) | 144.5 ± 22.6 µg/mL | decreased cytotoxicity | 3.13 µg/mL (≈ 2.92 µM) | – | – | – |
| CCCCCCCCCCCCCNCC(=O)N(CCN)CC(=O)N(CC(=O)N(CCCCN)CC(=O)N(CC(=O)N(CC(=O)N(CCCN)CC(N)=O)Cc1ccccc1)Cc1ccco1)C(C)c1ccccc1 (stereo not drawn) [Compound 911-M2] (H-[N(tridecyl)Gly][Gly(N-2-aminoethyl)][X1][Nlys][NFurfurylGly][Nphe][Gly(N(CH2)3NH2)]-NH2) | 6.25 to 12.5 µg/mL | 177 ± 20.5 µg/mL (≈ 170 µM) | – | dramatic decrease in cytotoxicity | 3.13 µg/mL (≈ 3 µM) | – | – | – |
| CCCCCCCCCCCCCNCC(=O)N(CCC)CC(=O)N(CC(=O)N(CCCCN)CC(=O)N(CC(=O)N(CC(=O)N(CCCN)CC(N)=O)Cc1ccccc1)Cc1ccco1)CC1CCCCC1 [Compound 911-M10] (H-[N(tridecyl)Gly][NPrGly][NCyclohexylmethylGly][Nlys][NFurfurylGly][Nphe][Gly(N(CH2)3NH2)]-NH2; N-terminus assumed) | 6.25 µg/mL (≈ 6.04 µM) | 97.8 ± 18.3 µg/mL (≈ 94.5 µM) | – | – | 0.78 to 1.56 µg/mL | 72.3% | sub-one | – |
| CCCCCCCCCCCCCC(=O)NCC(=O)N(CCC)CC(=O)N(CC(=O)N(CCCCN)CC(=O)N(CC(=O)N(CCCn1ccnc1)CC(=O)N(CCCN)CC(N)=O)Cc1ccco1)C(C)c1ccccc1 (stereo not drawn) [Compound 911-M14] (Myristoyl-G[NPrGly][X1][Nlys][NFurfurylGly][N(3-imidazol-1-ylpropyl)Gly][Gly(N(CH2)3NH2)]-NH2) | 25 µg/mL (≈ 22.9 µM) | > 200 µg/mL | – | – | 6.25 to 12.5 µg/mL | – | – | – |
| CCCCCCCCCCCCCC(=O)NCC(=O)N(CCC)CC(=O)N(CC(=O)N(CCCCN)CC(=O)N(CC(=O)N(CC(=O)N(CCCN)CC(N)=O)c1cccc2ccccc12)Cc1ccco1)C(C)c1ccccc1 (stereo not drawn) [Compound 911-M15] (Myristoyl-G[NPrGly][X1][Nlys][NFurfurylGly][X2][Gly(N(CH2)3NH2)]-NH2) | 6.25 µg/mL (≈ 5.64 µM) | 122 ± 21.3 µg/mL (≈ 111 µM) | – | – | 3.13 to 6.25 µg/mL | – | – | – |
| CCCCCCCCCCCCCC(=O)NCC(=O)N(CCC)CC(=O)N(CC(=O)N(CCCCN)CC(=O)N(CC(=O)N(CC(=O)N(CCCN)CC(N)=O)Cc1ccc(OC)cc1)Cc1ccco1)C(C)c1ccccc1 (stereo not drawn) [Compound 911-M16] (Myristoyl-G[NPrGly][X1][Nlys][NFurfurylGly][N(4-MeOBn)Gly][Gly(N(CH2)3NH2)]-NH2) | 6.25 µg/mL (≈ 5.67 µM) | 136 ± 39.6 µg/mL (≈ 123 µM) | – | – | 3.13 to 6.25 µg/mL | – | – | – |
| CCCCCCCCCCCCCC(=O)NCC(=O)N(CCC)CC(=O)N(CC(=O)N(CCCCN)CC(=O)N(CC(=O)N(CC(=O)N(CCCN)CC(N)=O)[C@@H](C)C1CCCCC1)Cc1ccco1)C(C)c1ccccc1 (stereo partly drawn) [Compound 911-M17] (Myristoyl-G[NPrGly][X1][Nlys][NFurfurylGly][N(1S-cyclohexylethyl)Gly][Gly(N(CH2)3NH2)]-NH2) | 6.25 µg/mL (≈ 5.73 µM) | 81.6 ± 5.97 µg/mL (≈ 74.8 µM) | – | – | 3.13 to 6.25 µg/mL | – | – | markedly more toxic |
| CCCCCCCCCCCCCC(=O)NCC(=O)N(CCC)CC(=O)N(CC(=O)N(CCCCN)CC(=O)N(CC(=O)N(CC(=O)N(CCCN)CC(N)=O)Cc1ccco1)Cc1ccco1)C(C)c1ccccc1 (stereo not drawn) [Compound 911-M18] (Myristoyl-G[NPrGly][X1][Nlys][NFurfurylGly][NFurfurylGly][Gly(N(CH2)3NH2)]-NH2) | 6.25 µg/mL (≈ 5.89 µM) | 152 ± 8.04 µg/mL (≈ 143 µM) | 151.96 ± 8.04 µg/mL | – | 6.25 µg/mL (≈ 5.89 µM) | – | – | slightly though not significantly better |
| CCCCCCCCCCCCCC(=O)NCC(=O)N(CCC)CC(=O)N(CC(=O)N(CCCCN)CC(=O)N(CC(=O)N(CC(=O)N(CCCN)CC(N)=O)Cc1ccc(F)cc1)Cc1ccco1)C(C)c1ccccc1 (stereo not drawn) [Compound 911-M19] (Myristoyl-G[NPrGly][X1][Nlys][NFurfurylGly][N(4-F-Bzl)Gly][Gly(N(CH2)3NH2)]-NH2) | 6.25 µg/mL (≈ 5.74 µM) | 106 ± 34.8 µg/mL (≈ 97.6 µM) | – | – | 3.13 µg/mL (≈ 2.87 µM) | – | – | – |
| CCCCCCCCCCCCCC(=O)NCC(=O)N(CCC)CC(=O)N(CC(=O)N(CCCCN)CC(=O)N(CC(=O)N(CC(=O)N(CCCN)CC(N)=O)CC1CCCCC1)Cc1ccco1)C(C)c1ccccc1 (stereo not drawn) [Compound 911-M20] (Myristoyl-G[NPrGly][X1][Nlys][NFurfurylGly][NCyclohexylmethylGly][Gly(N(CH2)3NH2)]-NH2) | 6.25 µg/mL (≈ 5.8 µM) | 79.6 ± 5.12 µg/mL (≈ 73.9 µM) | – | – | 3.13 µg/mL (≈ 2.9 µM) | – | – | markedly more toxic |
| CCCCCCCCCCCCCC(=O)NCC(=O)N(CCC)CC(=O)N(CC(=O)N(CCCCN)CC(=O)N(CC(=O)N(CC(=O)N(CCCN)CC(N)=O)Cc1cccs1)Cc1ccco1)C(C)c1ccccc1 (stereo not drawn) [Compound 911-M21] (Myristoyl-G[NPrGly][X1][Nlys][NFurfurylGly][N(2-thienylmethyl)Gly][Gly(N(CH2)3NH2)]-NH2) | 6.25 µg/mL (≈ 5.8 µM) | 135 ± 52.1 µg/mL (≈ 125 µM) | – | – | 3.13 to 6.25 µg/mL | – | – | – |
| CCCCCCCCCCCCCC(=O)NCC(=O)N(CCC)CC(=O)N(CC(=O)N(CCCCN)CC(=O)N(CC(=O)N(CC(=O)N(CCCN)CC(N)=O)C(C)c1ccccc1)Cc1ccco1)C(C)c1ccccc1 (stereo not drawn) [Compound 911-M22] (Myristoyl-G[NPrGly][X1][Nlys][NFurfurylGly][X1][Gly(N(CH2)3NH2)]-NH2) | 6.25 µg/mL (≈ 5.76 µM) | 113 ± 41.9 µg/mL (≈ 104 µM) | – | – | 3.13 µg/mL (≈ 2.88 µM) | – | – | – |
